Each structure is given as a SMILES string. Where a SMILES comes first, the peptide text is derived from it. The star is where a group is joined. tBu = CC(C)(C)*

The source of these data is EP0186173A2, “L-Aminodicarboxylic-(0-cycloalkyl)-L-aminocarboxylate alkyl esters, an edible composition containing same as sweeteners and a method for sweetening an edible composition” (GENERAL FOODS CORPORATION, priority 1984, dated 1986).

For assay [1] the following is noted: qualitative statement from prior art / literature; cited from earlier work.
Assay [2] in a line: Sweetness taste panel: sucrose equivalency, aqueous solutions matched to sucrose standard solutions. The note with it: relative to sucrose. The text has this: A taste procedure for determination of sweetness merely involves the determination.of sucrose equivalency. Sucrose equivalence for sweeteners are readily determined. The amount of a sweetener that is equivalent to a given weight percent sucrose can be determined by having a panel of tasters taste solutions of a sweetener at known concentrations and match its sweetness to standard solutionsof sucrose.
The following sensory evaluations were obtained by a panel of experts using known weight percent aqueous solutions of the above compound matched to sucrose standard solutions as previously described.

With `COC(=O)[C@H](COC(C)(C)C)NC(=O)[C@@H](N)CC(=O)O` [L-aspartyl-0-t,- butyl-L-serine methyl ester] (H-Asp-Ser(tBu)-OMe), in assay [1], the sweetness result was “significant sweetness”.

As to `CCC(C)(C)OC[C@H](NC(=O)[C@@H](N)CC(=O)O)C(=O)OC` [L-aspartyl-0-t-amyl-L-serine methyl ester], the sweetness entry in assay [1] is listed as “significant sweetness”.

Regarding `CCOC(=O)[C@H](COC1(C)CCCC1)NC(=O)[C@@H](N)CC(=O)O` [∝-L-Aspartyl-O-(1-methylcyclopentyl)-L-serine ethyl ester], the sweetness equivalent in assay [2] stood at 150 x sucrose.
